Columns and labels:
[1] = tested on: sickle cell disease
Text: The patient was a person with sickle cell disease characterized by diffuse pain involving the spine, long bones and abdomen; an elevated serum bilirubin and leukocytosis (the former indicating at least temporary liver damage due to the disease); a reticulocyte count of about 15% (indicating formation of new red blood cells) and a hematocrit of 24-30% (below the normal level of 43-45%). Prior treatment included i.v. hydration, transfusion with packed red blood cells and i.v. narcotics to manage the pain.
Because of the increasing frequency and severity of sickling crises, they were treated with desmopressin to induce a state of chronic hypo-osmolalityof body fluids by combination with increasd oral fluid administration.

[2] = in vivo; cited from earlier work
[3] = desmopressin 40 mcg intranasally every 6 hours + hydrochlorothiazide 100 mg daily, fluid intake 4.3±0.15 l/day

| Structure (SMILES) | effect on attainment of hyponatremic state ([1]; 100 mg daily, added to desmopressin and fluid intake of 4-5 l. daily) | vascular or non-vascular smooth muscle side effects [2] | pain and jaundice after regimen re-instated ([1]; after crisis signs on withdrawal) | period free of any signs or symptoms of sickle cell crisis ([1]; after re-instatement of the regimen) | serum Na after regimen re-instated ([1]; decreased from 142 mM after re-instatement of desmopressin regimen) | serum Na level at plateau [1, 3] | urine osmolality at plateau [1, 3] | time free of any signs of crisis ([1]; first period on the regimen) | untoward side-effects of the induced hyponatremia (nausea, cramps, disturbances in central nervous function) ([1]; human, in vivo) |
| --- | --- | --- | --- | --- | --- | --- | --- | --- | --- |
| NS(=O)(=O)c1cc2c(cc1Cl)NCNS2(=O)=O [Hydrochlorothiazide] | facilitated the attainment of a hyponatremic state |  |  |  |  |  |  |  |  |
| NC(=O)CC[C@@H]1NC(=O)[C@H](Cc2ccccc2)NC(=O)[C@H](Cc2ccc(O)cc2)NC(=O)CCSSC[C@@H](C(=O)N2CCC[C@H]2C(=O)N[C@H](CCCN=C(N)N)C(=O)NCC(N)=O)NC(=O)[C@H](CC(N)=O)NC1=O [desmopressin, 1-deamino-8-D-arginine vasopressin] |  | devoid of vascular or non-vascular smooth muscle side effects | pain and jaundice abated | 6 months | 127 mM | 125 mM | 344±13 m Osm/kg | 54 days | has not been associated with untoward side-effects |

From patent publication US4263283A, “Method for prophylaxis and/or treatment of sickle cell disease” (Ferring Pharmaceuticals, Inc., priority 1980, dated 1981)
